{"source": "PubChem BioAssay AID1259407", "about": "(Chemical Carcinogenesis Research Information System (CCRIS), 2018)", "system": "CCRIS mutagenicity, Ames/micronucleus/aberration tests", "experiment": "CCRIS mutagenicity studies", "key": {"[1]": {"conditions": "Test System: AMES SALMONELLA TYPHIMURIUM, Strain/Indicator: TA98, Metabolic Activation: NONE, Method: PREINCUBATION"}, "[2]": {"conditions": "Test System: AMES SALMONELLA TYPHIMURIUM, Strain/Indicator: TA100, Metabolic Activation: NONE, Method: PREINCUBATION"}, "[3]": {"conditions": "Test System: AMES SALMONELLA TYPHIMURIUM, Strain/Indicator: TA1535, Metabolic Activation: NONE, Method: PREINCUBATION"}, "[4]": {"conditions": "Test System: AMES SALMONELLA TYPHIMURIUM, Strain/Indicator: TA100, Metabolic Activation: NONE, Method: STANDARD PLATE"}}, "note": "Calls of active or inactive are those of the source. How the calls were made is not given here."}
{"smiles": "O=C1c2c(Br)c(Br)c(Br)c(Br)c2C(=O)N1CCN1C(=O)c2c(Br)c(Br)c(Br)c(Br)c2C1=O", "values": [{"measurement": "mutagenic call", "setting": "Test System: AMES SALMONELLA TYPHIMURIUM, Strain/Indicator: TA98, Metabolic Activation: HAMSTER, LIVER, S-9, AROCLOR 1254 (10%), Method: PREINCUBATION", "value": "inactive; negative"}, {"measurement": "mutagenic call", "setting": "[1]", "value": "inactive; negative"}, {"measurement": "mutagenic call", "setting": "Test System: AMES SALMONELLA TYPHIMURIUM, Strain/Indicator: TA98, Metabolic Activation: RAT, LIVER, S-9, AROCLOR 1254 (10%), Method: PREINCUBATION", "value": "inactive; negative"}, {"measurement": "mutagenic call", "setting": "Test System: AMES SALMONELLA TYPHIMURIUM, Strain/Indicator: TA100, Metabolic Activation: HAMSTER, LIVER, S-9, AROCLOR 1254 (10%), Method: PREINCUBATION", "value": "inactive; negative"}, {"measurement": "mutagenic call", "setting": "[2]", "value": "inactive; negative"}, {"measurement": "mutagenic call", "setting": "Test System: AMES SALMONELLA TYPHIMURIUM, Strain/Indicator: TA100, Metabolic Activation: RAT, LIVER, S-9, AROCLOR 1254 (10%), Method: PREINCUBATION", "value": "inactive; negative"}, {"measurement": "mutagenic call", "setting": "Test System: AMES SALMONELLA TYPHIMURIUM, Strain/Indicator: TA1535, Metabolic Activation: HAMSTER, LIVER, S-9, AROCLOR 1254 (10%), Method: PREINCUBATION", "value": "inactive; negative"}, {"measurement": "mutagenic call", "setting": "[3]", "value": "inactive; negative"}, {"measurement": "mutagenic call", "setting": "Test System: AMES SALMONELLA TYPHIMURIUM, Strain/Indicator: TA1535, Metabolic Activation: RAT, LIVER, S-9, AROCLOR 1254 (10%), Method: PREINCUBATION", "value": "inactive; negative"}, {"measurement": "mutagenic call", "setting": "Test System: AMES SALMONELLA TYPHIMURIUM, Strain/Indicator: TA1537, Metabolic Activation: HAMSTER, LIVER, S-9, AROCLOR 1254 (10%), Method: PREINCUBATION", "value": "inactive; negative"}, {"measurement": "mutagenic call", "setting": "Test System: AMES SALMONELLA TYPHIMURIUM, Strain/Indicator: TA1537, Metabolic Activation: NONE, Method: PREINCUBATION", "value": "inactive; negative"}, {"measurement": "mutagenic call", "setting": "Test System: AMES SALMONELLA TYPHIMURIUM, Strain/Indicator: TA1537, Metabolic Activation: RAT, LIVER, S-9, AROCLOR 1254 (10%), Method: PREINCUBATION", "value": "inactive; negative"}]}
{"smiles": "O=C(Nc1ccccc1)Nc1snc2ccccc12", "values": [{"measurement": "mutagenic call", "setting": "[4]", "value": "inactive; negative"}, {"measurement": "mutagenic call", "setting": "Test System: AMES SALMONELLA TYPHIMURIUM, Strain/Indicator: TA100, Metabolic Activation: S-9, Method: STANDARD PLATE", "value": "inactive; negative"}, {"measurement": "mutagenic call", "setting": "Test System: AMES SALMONELLA TYPHIMURIUM, Strain/Indicator: TA1537, Metabolic Activation: NONE, Method: STANDARD PLATE", "value": "inactive; negative"}, {"measurement": "mutagenic call", "setting": "Test System: AMES SALMONELLA TYPHIMURIUM, Strain/Indicator: TA1537, Metabolic Activation: S-9, Method: STANDARD PLATE", "value": "inactive; negative"}]}
{"smiles": "CC(O)C(C)[N+](=O)[O-]", "note": "(centres undefined)", "values": [{"measurement": "mutagenic call", "setting": "[1]", "value": "inactive; negative"}, {"measurement": "mutagenic call", "setting": "Test System: AMES SALMONELLA TYPHIMURIUM, Strain/Indicator: TA98, Metabolic Activation: RAT, LIVER, S-9, AROCLOR, Method: PREINCUBATION", "value": "inactive; negative"}, {"measurement": "mutagenic call", "setting": "[2]", "value": "inactive; negative"}, {"measurement": "mutagenic call", "setting": "Test System: AMES SALMONELLA TYPHIMURIUM, Strain/Indicator: TA102, Metabolic Activation: NONE, Method: PREINCUBATION", "value": "inactive; negative"}, {"measurement": "mutagenic call", "setting": "Test System: AMES SALMONELLA TYPHIMURIUM, Strain/Indicator: TA102, Metabolic Activation: RAT, LIVER, S-9, AROCLOR, Method: PREINCUBATION", "value": "inactive; negative"}]}
{"smiles": "O=C(O)C(Cl)(Cl)Cl", "values": [{"measurement": "mutagenic call", "setting": "End Point: IN VIVO MICRONUCLEUS, Test System: BONE MARROW POLYCHROMATIC ERYTHROCYTES, Species: MOUSE, Strain/Sex: C57BL/6JFBL10/ALPK/FEMALE, Route: IP INJECTION 2 TIMES AT 24 HR INTERVAL", "value": "inactive; negative"}, {"measurement": "mutagenic call", "setting": "End Point: IN VIVO MICRONUCLEUS, Test System: BONE MARROW POLYCHROMATIC ERYTHROCYTES, Species: MOUSE, Strain/Sex: C57BL/6JFBL10/ALPK/MALE, Route: IP INJECTION 2 TIMES AT 24 HR INTERVAL", "value": "inactive; negative; a statistically significant increase was observed at 675 mg/kg after 2"}, {"measurement": "mutagenic call", "setting": "Test System: AMES SALMONELLA TYPHIMURIUM, Strain/Indicator: RSJ100, Metabolic Activation: NONE, Method: PREINCUBATION", "value": "inactive; negative"}, {"measurement": "mutagenic call", "setting": "Test System: AMES SALMONELLA TYPHIMURIUM, Strain/Indicator: RSJ100, Metabolic Activation: RAT LIVER S-9, Method: PREINCUBATION", "value": "inactive; negative"}, {"measurement": "mutagenic call", "setting": "[1]", "value": "inactive; negative"}, {"measurement": "mutagenic call", "setting": "Test System: AMES SALMONELLA TYPHIMURIUM, Strain/Indicator: TA98, Metabolic Activation: RAT LIVER S-9, Method: PREINCUBATION", "value": "inactive; negative"}, {"measurement": "mutagenic call", "setting": "Test System: AMES SALMONELLA TYPHIMURIUM, Strain/Indicator: TA98, Metabolic Activation: RAT, LIVER, S-9, PHENOBARBITAL AND 5,6-BENZOFLAVONE, Method: PREINCUBATION", "value": "inactive; negative"}, {"measurement": "mutagenic call", "setting": "Test System: AMES SALMONELLA TYPHIMURIUM, Strain/Indicator: TA100, Metabolic Activation: NONE, Method: BAG VAPORIZATION", "value": "inactive; negative"}, {"measurement": "mutagenic call", "setting": "Test System: AMES SALMONELLA TYPHIMURIUM, Strain/Indicator: TA100, Metabolic Activation: NONE, Method: FLUCTUATION TEST", "value": "active; positive"}, {"measurement": "mutagenic call", "setting": "[2]", "value": "inactive; negative"}, {"measurement": "mutagenic call", "setting": "Test System: AMES SALMONELLA TYPHIMURIUM, Strain/Indicator: TA100, Metabolic Activation: RAT LIVER S-9, Method: PREINCUBATION", "value": "inactive; negative"}, {"measurement": "mutagenic call", "setting": "Test System: AMES SALMONELLA TYPHIMURIUM, Strain/Indicator: TA100, Metabolic Activation: RAT, LIVER, S-9, AROCLOR 1254, Method: BAG VAPORIZATION", "value": "inactive; negative"}, {"measurement": "mutagenic call", "setting": "Test System: AMES SALMONELLA TYPHIMURIUM, Strain/Indicator: TA100, Metabolic Activation: RAT, LIVER, S-9, AROCLOR 1254, Method: FLUCTUATION TEST", "value": "active; positive"}, {"measurement": "mutagenic call", "setting": "Test System: AMES SALMONELLA TYPHIMURIUM, Strain/Indicator: TA100, Metabolic Activation: RAT, LIVER, S-9, PHENOBARBITAL AND 5,6-BENZOFLAVONE, Method: PREINCUBATION", "value": "inactive; negative"}, {"measurement": "mutagenic call", "setting": "Test System: AMES SALMONELLA TYPHIMURIUM, Strain/Indicator: TA102, Metabolic Activation: NONE, Method: STANDARD PLATE", "value": "inactive; negative"}, {"measurement": "mutagenic call", "setting": "Test System: AMES SALMONELLA TYPHIMURIUM, Strain/Indicator: TA102, Metabolic Activation: RAT LIVER S-9, AROCLOR 1254, Method: STANDARD PLATE", "value": "inactive; negative"}, {"measurement": "mutagenic call", "setting": "Test System: MOUSE LYMPHOMA, Strain/Indicator: L5178Y (TK+/TK- -3.7.2C), Metabolic Activation: S-9", "value": "active; positive"}]}
{"smiles": "Brc1ccc2c(c1)[C@@H]1O[C@@H]1[C@H]1CCCC[C@H]21", "values": [{"measurement": "mutagenic call", "setting": "Test System: AMES SALMONELLA TYPHIMURIUM, Strain/Indicator: TA98, Metabolic Activation: NONE, Method: STANDARD PLATE", "value": "inactive; negative"}, {"measurement": "mutagenic call", "setting": "[4]", "value": "inactive; negative"}]}
{"smiles": "c1ccc(CC2CO2)cc1", "note": "(centres undefined)", "values": [{"measurement": "mutagenic call", "setting": "[2]", "value": "active; positive"}, {"measurement": "mutagenic call", "setting": "[4]", "value": "active; positive"}, {"measurement": "mutagenic call", "setting": "[3]", "value": "active; positive"}, {"measurement": "mutagenic call", "setting": "Test System: AMES SALMONELLA TYPHIMURIUM, Strain/Indicator: TA1535, Metabolic Activation: NONE, Method: STANDARD PLATE", "value": "active; positive"}]}
